# Source: article PMC3758320, “Fate of Ingested Clostridium difficile Spores in Mice” (PLoS ONE, 2013)
# Assays:
# [1] = Caco-2 permeability assay; settings: human, Caco-2
# [2] = test system: C. difficile spores; experiment: Onset of CDI signs in mice (timing of dosage); format: in vivo, C57BL/6N mice
# Experimental: Antibiotic treated mice were challenged by oral gavage with 10^8 CFUs of C. difficile strain 630 spores. Individual groups of five mice were treated with a single 300 mg/kg dose of CamSA at 0, 6, 9 or 12 hours post-spore challenge. A second 300 mg/kg dose of CamSA was administered 24 hours after the first dose.
# [3] = test system: mice; experiment: Acute toxicity in mice (Fixed Dose Procedure); settings: oral gavage, three consecutive days, doses up to saturating 300 mg/kg
# Experimental: (§5) CamSA was dissolved in DMSO to a concentration of 100 mg/ml. […] A control group was administered DMSO.
# [4] = test system: C. difficile; experiment: Effect on bacterial growth (C. difficile vegetative cells); format: cell-based; settings: 10 mM in growth medium, OD580 over 8 hours
# Experimental: (§1) Laboratory strains of E. coli DH5α, B. longum, L. gasseri, and C. difficile were individually inoculated from freezer stock onto appropriate agar medium as directed by ATCC. Plates were incubated overnight at 37°C either aerobically (L. gasseri and E. coli) or anaerobically (C. difficile and B. longum). Anaerobic conditions consisted of a 5% CO2, 10% H2, and 85% N2 environment. Single cell clones were carefully selected and used to inoculate 5 mL of liquid medium. Inoculated broth was shaken at 37°C for approximately four hours until optical density at 580 nm reached 0.8 representing exponential phase of growth. […] An increase of optical density at 580 nm (OD580) was used to measure exponential bacterial growth. The OD580 was recorded at 0, 1, 2, 3, 4, 6, and 8 hours post subculture inoculation. Growth inhibition was determined by comparing optical density of bile salt-treated cultures with untreated control cultures.
# [5] = test system: murine macrophages J774A.1; experiment: Cytotoxicity in murine macrophages J774A.1; format: cell-based; settings: macrophage cells, overnight
# Experimental: (§2) Vero cells, Caco-2 cells, and murine macrophages J774A.1 were seeded in complete medium (minimum essential medium (MEM), 10% fetal bovine serum (FBS), and 1% penicillin/streptomycin). Cells were grown at 37°C with 5% CO2. Cells were detached by incubation with 1 mM EDTA-trypsin for 5 minutes. Complete medium was then added and monolayers lifted with a cell scraper. Cells were recovered at 800×g for 5 minutes at room temperature and the cell pellet was resuspended in fresh complete medium. A sample of cell suspension was treated with trypan blue to determine background non-viable cells. […]
# (§3) The 12-well plates containing cell cultures were used as a qualitative method to determine cytotoxicity by visual observation of morphological changes, such as cell rounding. Cell viability was also determined by trypan blue dye exclusion staining. The 96-well plates cultured with mammalian cells were used as a quantitative method to determine cytotoxicity using the CellTiter Glo Luminescent cell viability assay. This assay quantitates the concentration of ATP, which indicates metabolically active cells. […] Luminescence was read with an integration time of 1 second per well using a Tecan Infinite 200 plate reader and iControl software. The luminescence signals from cell cultures supplemented with DMSO only were set as 100% cell viability. […]
# [6] = test system: Vero cells; experiment: C. difficile toxin-induced cell death (spent media on Vero cells); format: cell-based; settings: 200 µM; Vero cells exposed 24 hours
# Experimental: C. difficile strain 630 spores were washed five times with nanopure water, heat activated at 68°C for 30 minutes and washed five more times with water. Spore pellets were resuspended in 0.1 M sodium phosphate buffer supplemented with 0.5% sodium bicarbonate (pH 6.0) to an OD580 of 1.0. […] Spore suspensions were incubated anaerobically at 37°C overnight. The following day, C. difficile cells and spores were removed by centrifugation and spent media filter sterilized. In parallel, Vero and Caco-2 cells were cultured in 96-well plates, as described above. The mammalian cell cultures were then exposed to varying concentrations of sterile spent media for 24 hours. Cell viability was determined as before with the CellTiter Glo viability kit. The luminescence signals from cell cultures supplemented with 0% spent media were set as 100% cell viability. Percent survival for other conditions was calculated relative to these untreated cells.
# [7] = test system: Caco-2 cells; experiment: Cytotoxicity in Caco-2 cells; format: cell-based; settings: overnight
# Experimental: as §2, §3
# [8] = Stability in artificial gastric juice; format: in vitro ADME; settings: 24 hours incubation, 37°C, TLC
# Experimental: (§4) CamSA was analyzed for stability in simulated gastric and intestinal juices as published. Briefly, 100 mg CamSA was added to 1 ml of either artificial intestinal or artificial gastric juice and incubated at 37°C. Aliquots were taken at 4, 8, 12, and 24 hours. Samples (1 µl) were spotted on silica TLC plates and allowed to air dry. Plates were developed with 75% ethyl acetate/methanol. TLC plates were visualized by spraying with a 10% wt/vol phosphomolybdic acid (PMA)/ethanol solution followed by heating at 100°C for 2 minutes. Quantification of CamSA was determined using a GE Healthcare Typhoon 9410 Variable Mode Imager and analyzed using ImageQuant TL 5.2 software.
# [9] = test system: E. coli; experiment: Effect on bacterial growth (E. coli); format: cell-based, E. coli DH5α; settings: 10 mM in growth medium, OD580 over 8 hours
# Experimental: as §1
# [10] = test system: C. difficile spores; experiment: Enumeration of C. difficile vegetative cells and spores in GI contents and feces of treated mice; format: in vivo, C57BL/6N mice
# Experimental: Cages from infected animals were changed and feces were collected at different time points. Selected animals were sacrificed at different time points and their GI tract observed for signs of disease. Gastrointestinal tracts were removed in blocks and GI tract contents were flushed with autoclaved water. Feces and intestinal contents were weighed and homogenized in autoclaved water. Aliquots of the fecal suspensions were heated to 68°C for 30 minutes. Heated and unheated feces and GI tract contents were serially diluted in water and plated on Clostridium difficile selective agar (CDSA). Plates were incubated anaerobically for 48 hours and colonies were counted to enumerate colony-forming units (CFUs). CFUs obtained from unheated samples represent the sum of C. difficile vegetative cells and spores. CFUs obtained from heated samples represent the number of C. difficile spores only. The presence of C. difficile was verified by PRO disk.
# [11] = Stability in artificial intestinal juice; format: in vitro ADME; settings: 24 hours incubation, 37°C, TLC
# Experimental: as §4
# [12] = test system: L. gasseri; experiment: Stability after incubation with BSH-producing bacteria (L. gasseri); settings: 24 hours, 6 mM bile salt
# [13] = test system: B. longum; format: cell-based
# [14] = test system: L. gasseri; format: cell-based
# [15] = Stability in growth medium alone; format: in vitro ADME
# Experimental: Following previous procedures, Escherichia coli DH5α, Bifidobacterium longum (ATCC BAA-999) and Lactobacillus gasseri (ATCC 33323) were incubated for 24 hours at 37°C. […] Samples of spent media were taken at 4, 8, 12, and 24 hours. Bile salt concentration was monitored by TLC as above. Percent conjugated bile salts were derived by dividing the intensity of TLC spots obtained at different times by the intensity of the TLC spot obtained before incubation.
# [16] = test system: C. difficile spores; experiment: Prevention of CDI by bile salt analogs in mice challenged with C. difficile spores; format: in vivo, C57BL/6N mice; settings: for CDI signs: mice challenged with 10^8 CFU C. difficile spores, three doses
# [17] = test system: Caco-2 cell monolayer; experiment: Caco-2 permeability assay
# [18] = test system: B. longum; experiment: Stability after incubation with BSH-producing bacteria (B. longum); settings: 24 hours, 6 mM bile salt
# [19] = test system: C. difficile spores; experiment: Outgrowth of C. difficile spores in germination medium; format: cell-based, C. difficile strain 630; settings: 200 µM in medium, overnight
# [20] = test system: C. difficile spores; parameters: method as in PMID 23420906; settings: single 50 mg/kg dose; without any observable toxicity; cited from earlier work
# [21] = test system: E. coli; experiment: Stability after incubation with E. coli cultures; settings: 24 hour incubation
# [22] = test system: Vero cells; experiment: Cytotoxicity in Vero cells; format: cell-based; settings: overnight
# Experimental: as §2, §3
# [23] = test system: C. difficile spore germination; parameters: method as in PMID 21478359; settings: in vitro; read-out: IC50, inhibition of C. difficile spore germination; cited from earlier work
# [24] = test system: mice; settings: mouse, in vivo, po
# Experimental: as §5
# [25] = 300 mg/kg given at 9 or 12 hours post-challenge
# [26] = Caco-2, 10 µM, 2 hour incubation
structure (smiles),measurement,setting,value
CC(=O)CC(c1ccccc1)c1c(O)c2ccccc2oc1=O (centres unmarked) [Warfarin],"Papp A→B at 2 h, 10 µM",[1],42.9 ×10⁻⁶ cm/s
same,"Papp B→A at 2 h, 10 µM",[1],16 ×10⁻⁶ cm/s
same,"Papp at 2 h, 10 µM",[1],> 5 ×10⁻⁶ cm/s
same,"efflux ratio at 2 h, 10 µM",[1],0.4
CNC(=C[N+](=O)[O-])NCCSCc1ccc(CN(C)C)o1 [Ranitidine],"Papp A→B at 2 h, 10 µM",[1],0.3 ×10⁻⁶ cm/s
same,"Papp at 2 h, 10 µM",[1],< 0.5 ×10⁻⁶ cm/s
same,"efflux ratio at 2 h, 10 µM",[1],5.3
C[C@H](CCC(=O)Nc1cccc(S(=O)(=O)O)c1)[C@H]1CC[C@H]2[C@@H]3[C@H](O)C[C@@H]4C[C@H](O)CC[C@]4(C)[C@H]3C[C@H](O)[C@]12C [CamSA],CDI outcome,[2]; [25],developed severe CDI
same,time to clinical endpoint post infection,[2]; [25],48 h
same,protection from CDI,[2]; 300 mg/kg given up to 6 hours post-challenge,fully protected from CDI
same,physical adverse effects or weight loss,[3],No physical adverse effects or weight loss
same,growth of C. difficile cells,[4],grew normally
same,"cell viability, visual observation and trypan blue staining",[5],appeared healthy
same,cell killing by spent media from treated bacterial cultures,[6],less effective at killing epithelial cells
same,"cell viability, visual observation and trypan blue staining",[7],appeared healthy
same,degradation in artificial gastric juice,[8],No degradation
same,growth of E. coli,[9],unaffected
same,C. difficile vegetative cells in feces compared to spore counts,[10]; mice treated with 50 mg/kg,< 10%
same,C. difficile content of feces,[10]; treated mice,almost exclusively spores
same,spores recovered from the cecum and colon,"[10]; treated mice, before the decrease (up to 72 hours after spore challenge)",greater than 12×10^5 CFUs
same,spores recovered from the cecum and colon,"[10]; treated mice, by 96 hours after spore challenge",less than 2×10^5 CFUs
same,duration of excretion of ingested C. difficile spores post-challenge,"[10]; treated mice, feces",at least 96 hours
same,start of excretion of ingested C. difficile spores post-challenge,"[10]; treated mice, feces",2 h
same,degradation in artificial intestinal juice,[11],No degradation
same,fraction hydrolyzed to cholic acid by L. gasseri culture,[12],Less than 30%
same,growth of B. longum,[13],unaffected
same,growth of L. gasseri,[14],unaffected
same,degradation in growth medium alone,[15],not degraded
same,CDI signs,[16]; 50 mg/kg oral gavage,no sign of CDI
same,CDI signs,[16]; 300 mg/kg oral gavage,no sign of CDI
same,time without signs of CDI post-challenge,"[16]; treated, spore-challenged mice",≥ 14 days
same,Comment: efflux,"[17]; 10 µM, two hours",Efflux substrate
same,Comment: permeability ranking,"[17]; 10 µM, two hours",Low (Low (Papp < 0.5))
same,Efflux Ratio,"[17]; 10 µM, two hours, >2 indicates significant efflux activity",>2
same,apical to basolateral apparent permeability coefficient (Papp),[17]; [26],< 10^−6 cm/s
same,basolateral to apical Papp,[17]; [26],10.9 ×10⁻⁶ cm/s
same,recovery,[17]; both A→B and B→A assays,100%
same,hydrolysis to cholic acid by B. longum culture,[18],hydrolyzed to cholic acid at similar rates
same,bacterial growth from C. difficile spores,[19],reduced but not eliminated
same,prevention of CDI in mice,[20],prevented CDI
same,stability in E. coli cultures,[21],stable
same,"cell viability, visual observation and trypan blue staining",[22],appeared healthy
C[C@H](CCC(=O)O)[C@H]1CC[C@H]2[C@@H]3[C@H](O)C[C@@H]4C[C@H](O)CC[C@]4(C)[C@H]3CC[C@]12C [chenodeoxycholate],delay of CDI onset,[16]; 50 mg/kg,24 h
same,CDI signs,[16]; 50 mg/kg oral gavage,moderate to severe signs of CDI
same,IC50,[23],235 µM
same,observable side effects,[24]; 50 mg/kg,did not cause any observable side effects
same,acute toxicity outcome,[24]; 300 mg/kg,immediate death
